Reference: publication PMC11855086, “Synthesis, Antimicrobial Activity, and Tyrosinase Inhibition by Multifunctional 3,4-Dihydroxy-Phenyl Peptidomimetics” (International Journal of Molecular Sciences, 2025)
≈ marks a conversion by molar mass, not a printed value.

How the values were obtained:
E. coli R3 (ATCC 11775) = test: MIC and MBC, microtiter plate technique; assay type: cell-based; conditions: Escherichia coli; for MIC: ATCC11775, 24 h, resazurin; for MBC: ATCC11775, TTC
E. cloacae (ATCC 49141) = test: MIC and MBC, microtiter plate technique; assay type: cell-based; conditions: ATCC49141, Enterobacter cloacae; for MIC: 24 h, resazurin; for MBC: TTC
E. coli R4 (ATCC 39543) = test: MIC and MBC, microtiter plate technique; assay type: cell-based; conditions: Escherichia coli; for MBC: ATCC39543; for MIC: ATCC39543, 24 h
S. aureus (ATCC 23235) = test: microbe, parasite or virus in culture; assay type: cell-based; conditions: Staphylococcus aureus; for MBC: ATCC23235; for MIC: ATCC23235, 24 h
[1] = test system: A. baumannii (ATCC 17978); test: MIC and MBC, microtiter plate technique; assay type: cell-based; conditions: ATCC17978, Acinetobacter baumannii; for MIC: 24 h, resazurin; for MBC: TTC
E. coli R2 (ATCC 39544) = test: MIC and MBC, microtiter plate technique; assay type: cell-based; conditions: Escherichia coli; for MBC: ATCC39544; for MIC: ATCC39544, 24 h
E. coli K12 (ATCC 25404) = test: MIC and MBC, microtiter plate technique; assay type: cell-based; conditions: Escherichia coli; for MBC: ATCC25404; for MIC: ATCC25404, 24 h
MTT cytotoxicity assay = assay type: cell-based; conditions: mouse, BALB/c3T3 mouse embryonic fibroblast cells; for viability at 24 h, 1 µM: read-out: cell viability
Experimental: Following the completion of MIC and MBC assays on the analyzed bacterial strains, and subsequent treatment with Fpg protein modified by peptidomimetics along with selected antibiotics, a further MTT assay was conducted to evaluate the cytotoxicity of the compounds employing the BALB/c3T3 mouse embryonic fibroblast cell line (Figure 10).
BALB/c3T3 mouse embryonic fibroblast cells were exposed to peptidomimetics across concentrations ranging from 0.5 µM to 3.5 µM and incubated for a duration of 24 h. […] The highest concentrations (2.5 µM and 3.5 µM) inhibited cell viability, which was reduced to 20.2% and 1.0%, respectively (Figure 10 and Figure S40 in the Supplementary Materials).
The cytotoxic effects of aldehyde 1 and peptidomimetics 5a–r on BALB/c3T3 mouse fibroblast cells were assessed utilizing the MTT assay following a 24 h incubation period across five different concentrations (0.5, 1.0, 1.5, 2.5, and 3.5 µM). The MTT assay is predicated upon the capacity of mitochondrial dehydrogenase enzymes to convert the water-soluble tetrazolium salt, 3-([…])-2,5-diphenyltetrazolium bromide (MTT), into an insoluble formazan product, manifesting as dark blue crystals. These formazan crystals are then dissolved in DMSO or isopropanol, forming a colored solution whose intensity is measured spectrophotometrically within the wavelength range of 492–570 nm. The amount of MTT reduced corresponds to the oxidative activity of the mitochondria, which is directly proportional to the number of metabolically active cells in the population under defined experimental conditions. The MTT assay can also be used to assess cell viability in non-dividing metabolically active cells. It is one of the most widely used methods to assess cytotoxic activity and is recommended by international standards organizations as a reference method.

[2] = molecular target: T1, mushroom tyrosinase (mTYR) (Agaricus bisporus, UniProt C7FF04); test: Tyrosinase assay with L-DOPA as substrate (absorbance at 475 nm); assay type: biochemical; conditions: 100 µM compound
T1 construct: purchased Sigma-Aldrich (Poznan, Poland); host or cells: Agaricus bisporus (extracted natural enzyme)
Text: Tyrosinase (Tyr) extracted from Agaricus bisporus (mushroom tyrosinase, mTYR) is commonly used as a model enzyme for human Tyr due to its high purity, stability, and commercial availability. It is frequently used in the selection of TYR inhibitors. Following established literature protocols, L-tyrosine and L-DOPA, which serve as substrates for monophenol and diphenol oxidation, respectively, were used to assess the tyrosinase inhibitory activity of synthesized target compounds [21].
Tyrosinase (Tyr) activity was measured using L-DOPA as substrate and phosphate buffer solution (PBS) as blank control, following the method described by Min He et al. (2022) with an ultraviolet spectrophotometer (Carry-300, Agilent Life Sciences and Chemical Analysis, Santa Clara, CA, USA). […] Before the experiment, 2.9 mL of PBS and 0.1 mL of DMSO were used to account for the influence of the background solvent. The inhibitor solution (100 µL), substrate solution (2.8 mL), and Tyr solution (100 µL) were then added to a quartz colorimetric cuvette. After a one-minute mixing period, the absorption spectra of the mixture were continuously recorded at 475 nm using the UV spectrophotometer (Carry-300) for 5 min over a period of every 30 s. The tyrosinase inhibition rate was calculated as follows:Relative enzyme activity (%) = (A1 − A2)/A1 × 100
A1 = Absorbance of L-DOPA and inhibitor.
A2 = Absorbance of L-DOPA, inhibitor, and tyrosinase.

[3] = test system: P. aeruginosa (ATCC 15442); test: MIC and MBC, microtiter plate technique; assay type: cell-based; conditions: ATCC15442, Pseudomonas aeruginosa; for MIC: 24 h, resazurin; for MBC: TTC
[4] = test system: E. coli, A. baumannii, P. aeruginosa, E. cloacae, and S. aureus; test: MIC and MBC over all model bacterial strains (summary statements); assay type: cell-based; conditions: Gram-positive and Gram-negative bacteria
[5] = molecular target: T1, mushroom tyrosinase (mTYR); design: method as in earlier work; conditions: reported value; cited from earlier work

T1 sequence (C7FF04 1-392 limits assumed): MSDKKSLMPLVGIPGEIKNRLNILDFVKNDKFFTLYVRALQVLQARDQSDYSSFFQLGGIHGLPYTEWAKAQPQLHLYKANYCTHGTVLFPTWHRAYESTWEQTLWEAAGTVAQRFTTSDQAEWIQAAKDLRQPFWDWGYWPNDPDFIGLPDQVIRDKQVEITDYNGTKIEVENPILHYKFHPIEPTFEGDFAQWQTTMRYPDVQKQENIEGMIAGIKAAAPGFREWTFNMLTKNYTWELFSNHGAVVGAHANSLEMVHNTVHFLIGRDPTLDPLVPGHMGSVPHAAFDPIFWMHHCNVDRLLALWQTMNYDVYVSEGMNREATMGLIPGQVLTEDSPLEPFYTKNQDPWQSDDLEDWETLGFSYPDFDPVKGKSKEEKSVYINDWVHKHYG

Compound | MIC (E. coli R3 (ATCC 11775)) [µM] | MBC (E. coli R3 (ATCC 11775)) [µM] | MIC (E. cloacae (ATCC 49141)) [µM] | MBC (E. cloacae (ATCC 49141)) [µM] | MBC (E. coli R4 (ATCC 39543)) [µM] | MIC (E. coli R4 (ATCC 39543)) [µM] | MBC (S. aureus (ATCC 23235)) [µM] | MIC (S. aureus (ATCC 23235)) [µM] | MIC [1] [µM] | MBC [1] [µM] | MBC (E. coli R2 (ATCC 39544)) [µM] | MIC (E. coli R2 (ATCC 39544)) [µM] | MBC (E. coli K12 (ATCC 25404)) [µM] | MIC (E. coli K12 (ATCC 25404)) [µM] | inhibition at 100 µM [2] [%] | MIC [3] [µM] | MBC [3] [µM] | also measured
COc1ccc(CN(C(=O)Cc2ccccc2)C(C(=O)NCc2ccc(F)cc2)c2ccc(O)c(O)c2)cc1 (stereo not shown) [Compound 5c, 2-(3,4-dihydroxyphenyl)-N-(4-fluorobenzyl)-2-(N-(4-methoxybenzyl)-2-phenylacetamido)-acetamide] | 1.61 (≈ 0.851 µg/mL) | 1.79 (≈ 0.946 µg/mL) | 1.08 (≈ 0.571 µg/mL) | 1.11 (≈ 0.587 µg/mL) | 2.36 (≈ 1.25 µg/mL) | 1.98 (≈ 1.05 µg/mL) | 1 (≈ 0.529 µg/mL) | 0.96 (≈ 0.507 µg/mL) | 0.84 (≈ 0.444 µg/mL) | 0.94 (≈ 0.497 µg/mL) | 1.04 (≈ 0.55 µg/mL) | 1 (≈ 0.529 µg/mL) | 0.66 (≈ 0.349 µg/mL) | 0.45 (≈ 0.238 µg/mL) | < 10 | 1.04 (≈ 0.55 µg/mL) | 1.09 (≈ 0.576 µg/mL) | viability at 24 h, 1 µM (MTT cytotoxicity assay): 60.2%
CCCCN(C(C)=O)C(C(=O)NCc1ccc(OC)cc1)c1ccc(O)c(O)c1 (stereo not shown) [Compound 5q, 2-(N-butylacetamido)-2-(3,4-dihydroxyphenyl)-N-(4-methoxybenzyl)acetamide] | 1.13 (≈ 0.453 µg/mL) | 1.52 (≈ 0.609 µg/mL) | 0.84 (≈ 0.336 µg/mL) | 0.85 (≈ 0.34 µg/mL) | 1.58 (≈ 0.633 µg/mL) | 1.49 (≈ 0.597 µg/mL) | 0.91 (≈ 0.364 µg/mL) | 0.81 (≈ 0.324 µg/mL) | 0.81 (≈ 0.324 µg/mL) | 0.85 (≈ 0.34 µg/mL) | 1.44 (≈ 0.577 µg/mL) | 0.82 (≈ 0.328 µg/mL) | 0.79 (≈ 0.316 µg/mL) | 0.43 (≈ 0.172 µg/mL) | < 10 | 0.83 (≈ 0.332 µg/mL) | 0.87 (≈ 0.348 µg/mL) | viability at 24 h, 1 µM (MTT cytotoxicity assay): 86.9%
COc1ccc(CN(C(=O)Cc2ccccc2)C(C(=O)NCc2ccccc2)c2ccc(O)c(O)c2)cc1 (stereo not shown) [Compound 5a, N-benzyl-2-(3,4-dihydroxyphenyl)-2-(N-(4-methoxybenzyl)-2-phenylacetamido)-acetamide] | 0.66 (≈ 0.337 µg/mL) | 0.84 (≈ 0.429 µg/mL) | 0.58 (≈ 0.296 µg/mL) | 0.62 (≈ 0.317 µg/mL) | 1.15 (≈ 0.587 µg/mL) | 0.88 (≈ 0.449 µg/mL) | 0.68 (≈ 0.347 µg/mL) | 0.65 (≈ 0.332 µg/mL) | 0.63 (≈ 0.322 µg/mL) | 0.68 (≈ 0.347 µg/mL) | 0.62 (≈ 0.317 µg/mL) | 0.59 (≈ 0.301 µg/mL) | 0.32 (≈ 0.163 µg/mL) | 0.3 (≈ 0.153 µg/mL) | < 10 | 0.62 (≈ 0.317 µg/mL) | 0.66 (≈ 0.337 µg/mL) | antibacterial spectrum [4]: broad-spectrum activity; IC50 at 24 h (MTT cytotoxicity assay; 24 h of incubation, (±0.14), read-out: half maximum inhibitory concentration (IC50), cytotoxicity): 1.61 µM
O=Cc1ccc(O)c(O)c1 [Compound 1, 3,4-dihydroxybenzaldehyde, reference compound] | 2.85 (≈ 0.394 µg/mL) | 2.96 (≈ 0.409 µg/mL) | 2.75 (≈ 0.38 µg/mL) | 3.04 (≈ 0.42 µg/mL) | 3.58 (≈ 0.494 µg/mL) | 3.57 (≈ 0.493 µg/mL) | 3.33 (≈ 0.46 µg/mL) | 2.67 (≈ 0.369 µg/mL) | 2.82 (≈ 0.39 µg/mL) | 3.55 (≈ 0.49 µg/mL) | 2.6 (≈ 0.359 µg/mL) | 2.46 (≈ 0.34 µg/mL) | 1.82 (≈ 0.251 µg/mL) | 1.39 (≈ 0.192 µg/mL) | 15 | 3 (≈ 0.414 µg/mL) | 3.33 (≈ 0.46 µg/mL) | IC50 [5]: 250 µM
O=C(NCc1ccc(F)cc1)C(c1ccc(O)c(O)c1)N(C(=O)Cc1ccccc1)C1CCCCC1 (stereo not shown) [Compound 5f] | 0.83 (≈ 0.407 µg/mL) | 1.18 (≈ 0.579 µg/mL) | 0.68 (≈ 0.334 µg/mL) | 0.73 (≈ 0.358 µg/mL) | 1.3 (≈ 0.638 µg/mL) | 1.28 (≈ 0.628 µg/mL) | 0.71 (≈ 0.348 µg/mL) | 0.68 (≈ 0.334 µg/mL) | 0.68 (≈ 0.334 µg/mL) | 0.71 (≈ 0.348 µg/mL) | 0.75 (≈ 0.368 µg/mL) | 0.65 (≈ 0.319 µg/mL) | 0.61 (≈ 0.299 µg/mL) | 0.22 (≈ 0.108 µg/mL) | < 10 | 0.64 (≈ 0.314 µg/mL) | 0.69 (≈ 0.338 µg/mL) | –
CCCCN(C(=O)Cc1ccccc1)C(C(=O)NCc1ccc(F)cc1)c1ccc(O)c(O)c1 (stereo not shown) [Compound 5i] | 1.92 (≈ 0.892 µg/mL) | 2.13 (≈ 0.989 µg/mL) | 1.21 (≈ 0.562 µg/mL) | 1.27 (≈ 0.59 µg/mL) | 2.51 (≈ 1.17 µg/mL) | 2.31 (≈ 1.07 µg/mL) | 1.05 (≈ 0.488 µg/mL) | 0.99 (≈ 0.46 µg/mL) | 0.99 (≈ 0.46 µg/mL) | 1.05 (≈ 0.488 µg/mL) | 1.16 (≈ 0.539 µg/mL) | 1.17 (≈ 0.544 µg/mL) | 1.05 (≈ 0.488 µg/mL) | 0.6 (≈ 0.279 µg/mL) | > 10 | 1.23 (≈ 0.571 µg/mL) | 1.26 (≈ 0.585 µg/mL) | –
COc1ccc(CNC(=O)C(c2ccc(O)c(O)c2)N(Cc2ccc(OC)cc2)C(=O)Cc2ccccc2)cc1 (stereo not shown) [Compound 5b, 2-(3,4-dihydroxyphenyl)-N-(4-methoxybenzyl)-2-(N-(4-methoxybenzyl)-2-phenylacetamido)-acetamide] | 1.61 (≈ 0.87 µg/mL) | 1.7 (≈ 0.919 µg/mL) | 1 (≈ 0.541 µg/mL) | 1.05 (≈ 0.568 µg/mL) | 2.21 (≈ 1.19 µg/mL) | 2 (≈ 1.08 µg/mL) | 0.96 (≈ 0.519 µg/mL) | 0.9 (≈ 0.487 µg/mL) | 0.83 (≈ 0.449 µg/mL) | 0.9 (≈ 0.487 µg/mL) | 1.03 (≈ 0.557 µg/mL) | 0.98 (≈ 0.53 µg/mL) | 0.61 (≈ 0.33 µg/mL) | 0.45 (≈ 0.243 µg/mL) | > 10 | 0.96 (≈ 0.519 µg/mL) | 0.99 (≈ 0.535 µg/mL) | –
